Laboratory results taken from patent publication US7160913B2, “Methods and kit for treating Parkinson's disease” (Thomas Jefferson University, priority 2002, dated 2007).

Columns and labels:
[1] = system: parkinsonian monkeys; experiment: Duration of levodopa anti-Parkinson effect ("on" time) in parkinsonian monkeys; assay type: in vivo, monkey; conditions: 8 mg/kg D-cycloserine with 40 mg/kg levodopa plus 15 mg benserazide, compared to levodopa plus benserazide alone; two parkinsonian monkeys; blinded raters
Experimental: Eight mg/kg D-cycloserine was administered to two parkinsonian monkeys with an established therapeutic response to levodopa, together with 40 mg/kg levodopa plus the 15 mg of the peripheral dopa decarboxylase inhibitor benserazide. Symptomatic benefit was assessed by raters blind to treatment condition.

[2] = system: parkinsonian monkey; experiment: Severity of levodopa-induced choreiform dyskinesias in a parkinsonian monkey; assay type: in vivo
Experimental: A parkinsonian monkey was primed for choreiform dyskinesia following chronic administration of levodopa plus the peripheral dopa decarboxylase inhibitor benserazide. […] Severity of the dyskinesias was rated by observers blind to the treatment condition. Three independent repetitions of the study were performed.

[3] = system: parkinsonian monkey; experiment: Severity of levodopa-induced dystonias in a parkinsonian monkey; assay type: in vivo; conditions: 8 mg/kg D-cycloserine with 40 mg/kg levodopa plus 15 mg benserazide vs L-Dopa alone; at least over 120 minutes; three repetitions
Experimental: Under these conditions, 8 mg/kg D-cycloserine was administered to the monkeys with 40 mg/kg levodopa plus 15 mg benserazide. The severity of the dystonia was rated by observers blind to the treatment condition. […] Three independent repetitions of the study were performed.

[4] = system: parkinsonian monkeys; experiment: Peak-dose levodopa anti-parkinsonian efficacy in parkinsonian monkeys; assay type: in vivo, monkey; conditions: 8 mg/kg D-cycloserine with 40 mg/kg levodopa plus 15 mg benserazide; assessed 30 or 60 minutes after levodopa; two parkinsonian monkeys
Experimental: In two parkinsonian monkeys with an established therapeutic response to levodopa, peak-dose levodopa efficacy was assessed by raters blind to treatment condition. Eight mg/kg D-cycloserine was administered to the monkeys with 40 mg/kg levodopa plus 15 mg benserazide.

Compound	enhancement of levodopa "on" time, or duration of symptomatic relief by levodopa [1]	severity of levodopa-induced choreiform dyskinesias ([2]; 8 mg/kg D-cycloserine with 40 mg/kg levodopa plus 15 mg benserazide vs L-Dopa alone, at least over 120 minutes, monkey primed by chronic levodopa/benserazide, three repetitions)	severity of levodopa-induced dystonias [3]	effect on therapeutic (anti-parkinsonian) efficacy of levodopa, peak-dose [4]	choreiform dyskinesias caused by levodopa challenge ([2]; 40 mg/kg challenge dose of levodopa, parkinsonian monkey primed by chronic levodopa plus benserazide)
N[C@@H]1CONC1=O [D-cycloserine]	41%	significantly decreased the severity of these dyskinesias	significantly decreased the severity of the dystonias	did not interfere with or reduce the therapeutic efficacy of levodopa	–
N[C@@H](Cc1ccc(O)c(O)c1)C(=O)O [levodopa]	–	–	–	–	caused significant choreiform dyskinesias
